# According to patent publication US9856218B2, “Inhibitors of PRMT5 and methods of their use” (Ohio State Innovation Foundation, priority 2013, dated 2018):
# “Also recorded” adds a separate entry of the source.
# What was measured:
# [1] = MTD study, four mice each dose; type: in vivo; conditions: mouse, in vivo, ip
# Method: Controlled shRNA depletion was evaluated in a murine lymphoma model (Eμ-BRD2 (Chung, J., et al. (2013) J. Biological Chemistry 288, 35534-35547)) and human xenograft model of glioblastoma (Yan, F., et al (2014) Cancer Research In Press). Referring to FIG. 62A, controlled expression of a PRMT5 shRNA (solid line) but not control shRNA (dashed line) leads to 100% survival of mice engrafted primary DLBCL tumor cells. […] The maximum tolerated dose (MTD, single dose) was identified at 50 mg/kg (see Table 11 below). A sub-toxic dose (25 mg/kg) was used to treat FcMCL mice. Control mice developed peripheral blood and lymph node tumor burden starting day 20 post-engraftment.
# multiple cell lines = experiment: Proliferation of multiple cell lines (FIG. 59); type: cell-based; conditions: FIG. 59A-E
# Method: Proliferation of multiple cell lines was evaluated for CMPD 5, CMPD 7, HLCL61, HLCL-65, and HLCL-66 (FIG. 59A-E).
# [2] = test system: symmetrically dimethylated H3 (H3R8me2) and H4 (H4R3me2) in AML samples; experiment: Western blotting of PRMT5 histone marks; type: cell-based; conditions: FIG. 33B, listed as C12
# Method: (§1) Whole cell lysates were prepared by suspending cell pellets in RIPA buffer for 20 min (1% NP-40, 0.1% SDS, 150 mM NaCl, 50 mM Tris, pH 8.0), then supplemented with 1× complete EDTA free protease inhibitor (Roche) and 1× PhosStop (Roche). Lysates were separated by 4-20% SDS-PAGE and transferred to PVDF membrane (GE Healthcare, Piscataway, N.J.). Membranes were blocked with 5% milk or BSA in 1×TBS with 0.1% Tween 20 for 1 hour at room temperature with shaking. Primary antibodies for ACTIN, GAPDH and FLT3 (Santa Cruz Biotechnology, Santa Cruz Calif.), P65 (Cell signaling), PRMT5 and SP1 (Millipore), H4R3, H3R8, H3 and H4 (Abcam), were diluted 1:1000 or 1:2000 in 5% milk or BSA and incubated for 1-2 hr at room temperature. Membranes were washed using 1×TBS-T, incubated with HRP-conjugated secondary antibodies diluted in 1×TBS-T with 5% milk or BSA, washed, and developed using SuperSignal West Dura Chemiluminescent Substrate (Thermo Scientific). Whole cell lysate (at least 500 μg) was used to pull down protein complexes using Catch and Release v2.0 Reversible Immunoprecipitation System (Millipore) and ˜4 μg antibodies against PRMT5, SP1, p65 and 1 μg normal IgG as negative control (Millipore). Denatured pull down samples were subjected to regular western blotting with exception of using TrueBlot IP secondary antibody (Rockland) for immunodetection. […]
# [3] = test system: SP1 protein in AML cell lines (FLT3-ITD and FLT3-WT); experiment: SP1 protein levels, Western blotting; type: cell-based
# Method: as §1, with “Scientific).” for “Scientific). Whole cell lysate (at least 500 μg) was used to pull down protein complexes using Catch and Release v2.0 Reversible Immunoprecipitation System (Millipore) and ˜4 μg antibodies against PRMT5, SP1, p65 and 1 μg normal IgG as negative control (Millipore). Denatured pull down samples were subjected to regular western blotting with exception of using TrueBlot IP secondary antibody (Rockland) for immunodetection.”
# A similar trend was documented in the in vivo murine model of PRMT5 overexpression generated by THP-1/PRMT5 engraftment, as a significant increase in SP1 levels was measured when compared to THP-1/EV control mice (FIG. 45). […]
# [4] = test system: Mantle cell lymphoma cell line Jeko; experiment: Induction of apoptosis, FITC-Annexin V-PI flow cytometry; type: cell-based
# Method: Analysis by flow cytometry. Cell viability was also measured by flow cytometry at 24 and 48 hr using annexin-V-FITC and propidium iodide (PI) according to the manufacturer's instructions (BD Biosciences).
# Following the synthesis of 14 compounds, the anti-proliferation and pro-apoptotic activities of those compounds was evaluated in Mantle cell lymphoma cell line Jeko. Replicate cultures of Jeko were incubated in DMSO and the compounds for 24, 48 and 72 hours. FITC-Annexin V-PI stained flow cytometry was used to detect the apoptotic population of cells (Table 4).
compound,measurement,setting,value
CCn1c2ccccc2c2cc(CNCc3ccccc3OC)ccc21 [HLCL-61],survival 24 hr after dosing,"[1]; 5 mg/kg, 24 h",Alive 24 hr after
same,condition within 1 hr after dosing (alive but slow moving),[1]; 50 mg/kg,Alive within 1 hr after
same,mice lethargic and slow moving 24 hr after dosing,"[1]; 50 mg/kg, 24 h","after dosing, 1 out 4"
same,survival 24 hr after dosing,"[1]; 50 mg/kg, 24 h",moving. Alive 24 hr
same,"potency, proliferation of multiple cell lines",multiple cell lines,low micromolar range
same,methylation inhibition of histones H3 and H4,[2],most effective; also recorded: down-regulation of symmetrically dimethylated H3 (H3R8me2) and H4 (H4R3me2)
same,SP1 protein levels,[3],significant knockdown of SP1 protein levels
same,EC50,[4]; 24 h,15 µM
same,EC50,[4]; 48 h,11 µM
